{"source": "patent US7935335B2", "about": "“Strains belonging to the genus Paenibacillus and method of controlling plant disease by using these strains or culture thereof” (Kaken Pharmaceutical Co., Ltd., priority 2004, dated 2011)", "key": {"[1]": {"test_system": "Fusarium wilt of cucumber fungus (Fusarium oxysporum f. sp. cucumerium)", "assay": "Evaluation Example 5: control effect on Fusarium wilt of cucumber", "type": "in vivo", "details": "20 ppm, Spray", "description": "Each of plastic vats was filled with horticultural compost and sown with cucumber (cultivar: Sagamihanjiro), followed by growing in a greenhouse for 12 days. The cucumber young seedling having a developed cotyledon was subjected to foliar spray treatment with the formulation obtained in the above-mentioned preparation example, in a proportion of 1 mL per seedling. After the vats were allowed to stand in a glass house at 25° C. for 3 days, the plant foot of each plant was inoculated with 2 mL of a suspension (3×10^7 spores/mL) of conidia of Fusarium wilt of cucumber fungus (Fusarium oxysporum f. sp. cucumerium) in distilled water by drench. The vats were allowed to stand in a glass house at 25° C. for 14 days to cause the disease. The disease severity was calculated from the degree of infection and then the protective value was calculated from the disease severity values by the following equation to make a comparison with respect to control effect. […]"}, "[2]": {"test_system": "cucumber anthracnose fungus (Colletotrichum orbiculare)", "assay": "Test Example 2: control effect of purified spores on cucumber anthracnose", "type": "in vivo", "details": "20 ppm", "description": "Each of plastic pots was filled with horticultural compost and sown with cucumber (cultivar: 15 Suyo), followed by growing in a greenhouse for 20 days. The cucumber young seedling having a developed second true leaf was subjected to foliage application treatment with a spore preparation sample of strain BS-0105 obtained by formulating the bacterium of the present invention produced by the method described in each of Production Examples 4, 5, 6 and 7, by the method described in Formulation Example 1, so that the proportion of cells might be 2×10^7 CFU/mL. After the pots were allowed to stand in a dark moist chamber at 25° C. for 24 hours and then in a glass house at 25° C. for 4 days, the plants were inoculated with a suspension of cucumber anthracnose fungus conidia in distilled water (Colletotrichum orbiculare, 1×10^6 spores/ml) by spraying. The pots were allowed to stand in a dark moist chamber at 25° C. for 24 hours and then in a glass house at 25° C. for 7 days to cause the disease. Lesions in each leaf were counted and the protective value was calculated from the number of the lesions by the following equation to make a comparison with respect to control effect. Protective value={1−(number of lesions on treated plot/number of lesions on untreated plot)}×100"}}}
{"smiles": "CSC(=O)c1cccc2nnsc12", "note": "[Acibenzolar-S-methyl, S-methyl 1,2,3-benzothiazole-7-carboxylate]", "values": [{"measurement": "Disease severity", "setting": "[1]", "result": 9.4}, {"measurement": "Protective value", "setting": "[1]", "result": 75.6}, {"measurement": "First true leaf Number of lesions per leaf", "setting": "[2]", "result": 0}, {"measurement": "First true leaf Protective value", "setting": "[2]", "result": 100}, {"measurement": "Second true leaf Number of lesions per leaf", "setting": "[2]", "result": 5.5}, {"measurement": "Second true leaf Protective value", "setting": "[2]", "result": 99}]}
